{"source": "paper PMC5571287", "about": "(Antimicrobial Agents and Chemotherapy, 2017)", "key": {"[1]": {"system": "RSV A2", "assay": "CPE assay, RSV A2 in HEp-2 cells (resazurin)", "format": "cell-based, respiratory syncytial virus", "conditions": "for IC50: read-out: RSV A2 IC50; for IC90: read-out: RSV A2 IC90"}, "[2]": {"system": "RSV B WST", "assay": "CPE assay, RSV B Washington in HEp-2 cells (resazurin)", "format": "cell-based, respiratory syncytial virus"}, "[3]": {"system": "PC786 escape mutant (Y1631H) of RSV A2", "format": "cell-based, respiratory syncytial virus", "conditions": "for IC50: read-out: PC786 escape mutant IC50, N=3, after 6th passage; for IC50 / IC90: CPE; for IC90: read-out: PC786 escape mutant IC90, N=3; for activity on CPE of the PC786 escape mutant, in words: vs wild type"}, "[4]": {"molecular_target": "minigenome construct comprising the L protein, M2-1, N, and P of RSV A2 (Human respiratory syncytial virus A, UniProt P28887)", "sequence (P28887 whole entry)": "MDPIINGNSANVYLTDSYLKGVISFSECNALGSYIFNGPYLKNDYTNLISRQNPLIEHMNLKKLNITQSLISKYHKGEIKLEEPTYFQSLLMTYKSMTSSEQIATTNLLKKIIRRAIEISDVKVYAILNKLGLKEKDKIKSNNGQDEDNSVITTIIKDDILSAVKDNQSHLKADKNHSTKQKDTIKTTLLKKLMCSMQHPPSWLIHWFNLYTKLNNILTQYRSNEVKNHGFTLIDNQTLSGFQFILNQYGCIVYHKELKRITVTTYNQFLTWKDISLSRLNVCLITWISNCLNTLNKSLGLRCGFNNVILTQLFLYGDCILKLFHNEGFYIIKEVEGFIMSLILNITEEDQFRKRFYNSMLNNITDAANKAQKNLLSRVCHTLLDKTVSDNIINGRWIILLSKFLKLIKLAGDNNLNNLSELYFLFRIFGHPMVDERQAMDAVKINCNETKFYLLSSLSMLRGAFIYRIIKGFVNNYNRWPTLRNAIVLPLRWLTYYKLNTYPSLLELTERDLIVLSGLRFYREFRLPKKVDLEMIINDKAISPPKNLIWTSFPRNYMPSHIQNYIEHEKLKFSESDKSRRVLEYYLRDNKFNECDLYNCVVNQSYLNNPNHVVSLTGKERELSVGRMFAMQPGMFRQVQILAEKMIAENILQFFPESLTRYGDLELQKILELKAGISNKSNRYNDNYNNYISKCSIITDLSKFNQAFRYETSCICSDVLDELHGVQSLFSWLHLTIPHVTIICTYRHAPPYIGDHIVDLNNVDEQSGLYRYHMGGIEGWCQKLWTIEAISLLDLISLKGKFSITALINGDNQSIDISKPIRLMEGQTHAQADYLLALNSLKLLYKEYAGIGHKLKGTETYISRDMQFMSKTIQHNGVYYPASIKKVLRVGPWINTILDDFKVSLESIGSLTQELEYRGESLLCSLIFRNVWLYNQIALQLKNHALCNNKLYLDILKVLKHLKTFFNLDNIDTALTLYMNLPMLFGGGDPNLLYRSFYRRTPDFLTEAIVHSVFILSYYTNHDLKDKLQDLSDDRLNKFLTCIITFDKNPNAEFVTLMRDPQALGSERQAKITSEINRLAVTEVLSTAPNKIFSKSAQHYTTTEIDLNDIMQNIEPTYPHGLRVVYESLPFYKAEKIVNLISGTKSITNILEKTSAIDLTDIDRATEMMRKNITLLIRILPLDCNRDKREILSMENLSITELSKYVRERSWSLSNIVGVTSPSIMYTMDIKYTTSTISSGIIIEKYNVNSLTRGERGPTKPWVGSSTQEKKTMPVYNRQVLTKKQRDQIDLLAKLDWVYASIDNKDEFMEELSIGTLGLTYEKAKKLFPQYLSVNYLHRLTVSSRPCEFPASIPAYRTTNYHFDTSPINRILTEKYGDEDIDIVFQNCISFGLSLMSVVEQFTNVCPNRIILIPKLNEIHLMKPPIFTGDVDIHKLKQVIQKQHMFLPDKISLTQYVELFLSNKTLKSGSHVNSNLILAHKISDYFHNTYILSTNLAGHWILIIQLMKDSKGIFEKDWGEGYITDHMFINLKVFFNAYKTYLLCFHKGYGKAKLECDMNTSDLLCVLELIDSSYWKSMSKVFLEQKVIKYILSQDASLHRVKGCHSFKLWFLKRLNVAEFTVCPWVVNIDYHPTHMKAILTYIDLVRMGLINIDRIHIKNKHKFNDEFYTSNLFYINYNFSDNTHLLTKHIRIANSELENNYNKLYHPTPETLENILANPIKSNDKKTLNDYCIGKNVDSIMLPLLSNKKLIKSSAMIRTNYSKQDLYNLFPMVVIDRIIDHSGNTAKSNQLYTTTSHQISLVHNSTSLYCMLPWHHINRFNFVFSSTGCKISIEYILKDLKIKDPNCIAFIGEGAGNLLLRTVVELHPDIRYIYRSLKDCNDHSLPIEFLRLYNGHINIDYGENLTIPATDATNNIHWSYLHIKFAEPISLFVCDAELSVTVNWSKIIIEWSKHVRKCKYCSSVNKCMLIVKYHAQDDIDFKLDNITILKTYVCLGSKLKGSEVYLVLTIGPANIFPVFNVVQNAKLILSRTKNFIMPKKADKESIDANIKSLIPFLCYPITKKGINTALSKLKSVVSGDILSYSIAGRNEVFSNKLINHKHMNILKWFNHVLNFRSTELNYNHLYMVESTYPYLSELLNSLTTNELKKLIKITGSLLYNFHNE", "sequence (P03421 whole entry, further chain)": "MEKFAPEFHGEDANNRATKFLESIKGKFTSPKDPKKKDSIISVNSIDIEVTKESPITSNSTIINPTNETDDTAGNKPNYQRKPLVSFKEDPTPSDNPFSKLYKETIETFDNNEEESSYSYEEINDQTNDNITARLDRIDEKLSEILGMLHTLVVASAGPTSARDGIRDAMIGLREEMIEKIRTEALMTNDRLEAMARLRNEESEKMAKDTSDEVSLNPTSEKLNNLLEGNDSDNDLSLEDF", "assay": "cell-based"}, "[5]": {"system": "Wild type RSVA2 (vehicle control virus)", "assay": "CPE assay, vehicle control (wild type) RSV A2 virus", "conditions": "for IC50: read-out: Wild type RSVA2 IC50; for IC90: read-out: Wild type RSVA2 IC90"}, "[6]": {"system": "RSV A 1998/3-2", "assay": "CPE 2, neutral red 96-well CPE assay in HEp-2", "format": "cell-based", "conditions": "human respiratory syncytial virus", "method": "(§1) For RSV A 2001/3-12, 1998/3-2, and USU⃥v1225, CPE was induced in HEp-2 cells for 7 days and the plates were then stained with neutral red dye for approximately 2 h. The intracellular incorporated dye was extracted in 50:50 Sorensen citrate buffer-ethanol and the absorbance read on a spectrophotometer. The optical density (OD) of test wells was converted to percentage of cell and virus controls. […] The virus inocula were ∼63 50% cell culture infectious doses (CCID50) per well for 2001/3-12, ∼40 CCID50/well for 1998/3-2, and ∼32 CCID50/well for USU\\v1225. This assay was conducted in Utah State University (Logan, UT)."}, "[7]": {"system": "RSV A USU\\v1225", "assay": "CPE 2, neutral red 96-well CPE assay in HEp-2", "format": "cell-based", "conditions": "human respiratory syncytial virus", "method": "as §1"}, "[8]": {"system": "RSV A 2001/3-12", "assay": "CPE 2, neutral red 96-well CPE assay in HEp-2", "format": "cell-based", "conditions": "human respiratory syncytial virus", "method": "as §1"}, "[9]": {"assay": "Cell viability in HEp-2 cells (resazurin)", "conditions": "human, HEp-2 cells"}, "[10]": {"system": "RSV A 2000/3-4", "assay": "CPE 1, resazurin 384-well CPE assay in HEp-2", "format": "cell-based", "conditions": "human respiratory syncytial virus", "method": "(§2) For known clinical strains (RSV A 1997/12-35, 2001/2-20, 200/3-4, and Memphis 37), a 384-well-format resazurin-based CPE assay was conducted."}, "[11]": {"system": "RSV A Memphis 37c", "assay": "CPE 1, resazurin 384-well CPE assay in HEp-2", "format": "cell-based", "conditions": "human respiratory syncytial virus", "method": "as §2"}, "[12]": {"system": "RSV A 2001/2-20", "assay": "CPE 1, resazurin 384-well CPE assay in HEp-2", "format": "cell-based", "conditions": "human respiratory syncytial virus", "method": "as §2"}, "[13]": {"system": "RSV A 1997/12-35", "assay": "CPE 1, resazurin 384-well CPE assay in HEp-2", "format": "cell-based", "conditions": "human respiratory syncytial virus", "method": "as §2"}, "[14]": {"assay": "in vitro", "conditions": "human"}, "[15]": {"system": "RSV A2", "assay": "RSV F protein cell-based ELISA in BEAS-2B cells, washout / nonwashout", "conditions": "human respiratory syncytial virus, read-out: IC50, F protein expressed on cell surfaces", "method": "Approximately 72 h after BEAS-2B cells were seeded in 96-well plates (at 4 × 10^4/ml; 100 μl/well), the medium in the plates was removed and replaced with 200 μl of fresh LHC-8 medium. […] For nonwashout plates, the compounds and DMSO (1 μl/well) were applied immediately after infection. On day 3 postinfection, supernatant was aspirated and the cells were fixed with 4% formaldehyde (100 μl in PBS solution) for 20 min at room temperature (RT), washed three times with wash buffer (WB) (200 μl; PBS containing 0.05% Tween 20), and incubated with blocking buffer (100 μl; 5% bovine serum albumin [BSA] in wash buffer) for 1 h. […] Abcam plc, Cambridge, UK). After a washing, cells were incubated with a horseradish peroxidase (HRP)-conjugated anti-mouse IgG antibody (50 μl/well; 1:2,000, Abcam) for 1 h. Tetramethylbenzidine (TMB) substrate (50 μl) was then added after two washings with WB and one with PBS, and the reaction was stopped by the addition of aqueous sulfuric acid (2 N; 50 μl/well). The resultant signal was determined colorimetrically (OD at 450 nm [OD450] with a reference wavelength of 655 nm) in a microplate reader (Multiskan FC; Thermo Fisher Scientific). Cells were then washed, and 0.5% crystal violet solution ([…]) was applied for 30 min. […] The measured F protein signals (OD450 − OD655 readings) were corrected for cell number (OD595 readings) by dividing the OD450–655 by the OD595 readings."}, "[16]": {"system": "RSV A2", "assay": "Time-of-addition assay and MOI dependency, CPE (methylene blue) in HEp-2", "format": "cell-based", "conditions": "human respiratory syncytial virus"}, "[17]": {"conditions": "CPE, HEp-2, n = 3, added with virus infection, ALS-8112 24 h prior"}, "[18]": {"conditions": "human respiratory syncytial virus, HEp-2"}, "[19]": {"conditions": "human respiratory syncytial virus"}}, "note": "Like-named read-outs stand apart in the source and are kept apart here.", "data": [{"smiles": "COc1ccc(CCNCCCN2C(=O)c3c(cc(N)c4[nH]c(-c5ccc(C)c([N+](=O)[O-])c5)nc34)C(C)(C)C2=O)cc1OC", "note": "[BI compound D]", "values": [{"measurement": "IC50", "setting": "[1]; [17]", "result": "57.6 ± 1.53", "unit": "nM"}, {"measurement": "IC90", "setting": "[1]; [17]", "result": "> 333", "unit": "nM"}, {"measurement": "IC50", "setting": "[2]; [17]", "result": "47.8 ± 2.96", "unit": "nM"}, {"measurement": "IC90", "setting": "[2]; [17]", "result": "> 1660", "unit": "nM"}, {"measurement": "IC50", "setting": "[3]", "result": 87.4, "unit": "nM"}, {"measurement": "IC90", "setting": "[3]", "result": 161, "unit": "nM"}, {"measurement": "activity on CPE of the PC786 escape mutant, in words", "setting": "[3]", "result": "slightly reduced"}, {"measurement": "IC50", "setting": "[4]", "result": 55.3, "unit": "nM"}, {"measurement": "IC90", "setting": "[4]", "result": 233, "unit": "nM"}, {"measurement": "IC50", "setting": "[5]; CPE, N=3, vehicle control virus", "result": 11.9, "unit": "nM"}, {"measurement": "IC90", "setting": "[5]; CPE, N=3", "result": 79.9, "unit": "nM"}]}, {"smiles": "Nc1ccn([C@@H]2O[C@@](CO)(CCl)[C@@H](O)[C@H]2F)c(=O)n1", "note": "[ALS-8112, reference compound]", "values": [{"measurement": "IC50", "setting": "[1]; [18]", "result": "455 ± 16", "unit": "nM"}, {"measurement": "IC90", "setting": "[1]; [18]", "result": 1130, "unit": "nM"}, {"measurement": "IC50", "setting": "[2]; [18]", "result": "647 ± 44.2", "unit": "nM"}, {"measurement": "IC90", "setting": "[2]; [18]", "result": 2130, "unit": "nM"}, {"measurement": "IC50", "setting": "[6]", "result": 1500, "unit": "nM"}, {"measurement": "IC50", "setting": "[7]", "result": 880, "unit": "nM"}, {"measurement": "IC50", "setting": "[8]", "result": 3200, "unit": "nM"}, {"measurement": "IC90", "setting": "[4]; luciferase, HEp-2, wild-type L protein", "result": 831, "unit": "nM"}, {"measurement": "CC50", "setting": "[9]", "result": "> 341000", "unit": "nM"}, {"measurement": "IC50", "setting": "[10]", "result": 515, "unit": "nM"}, {"measurement": "IC50", "setting": "[11]", "result": 398, "unit": "nM"}, {"measurement": "IC50", "setting": "[12]", "result": 768, "unit": "nM"}, {"measurement": "IC50", "setting": "[13]", "result": 693, "unit": "nM"}]}, {"smiles": "NC(=O)c1ncn([C@@H]2O[C@H](CO)[C@@H](O)[C@H]2O)n1", "note": "[Ribavirin]", "values": [{"measurement": "IC50", "setting": "[1]; [18]", "result": "> 16400", "unit": "nM"}, {"measurement": "IC90", "setting": "[1]; [18]", "result": "> 16400", "unit": "nM"}, {"measurement": "IC50", "setting": "[2]; [18]", "result": 10300, "unit": "nM"}, {"measurement": "IC90", "setting": "[2]; [18]", "result": "> 16400", "unit": "nM"}, {"measurement": "CC50", "setting": "[14]", "result": 202000, "unit": "nM"}, {"measurement": "IC50", "setting": "[15]; 2 h exposure then 24-h washout before inoculation", "result": 253000, "unit": "nM"}, {"measurement": "IC50", "setting": "[15]; nonwashout (sustained presence of drug)", "result": 6000, "unit": "nM"}]}, {"smiles": "Cc1ccc(CCCO)c(NCc2ccc3nc(NCCCN4CCOCC4)n(Cc4nc(C)ccc4O)c3c2)c1", "note": "[TMC35315]", "values": [{"measurement": "IC50", "setting": "[1]; [17]", "result": "0.78 ± 0.0093", "unit": "nM"}, {"measurement": "IC90", "setting": "[1]; [17]", "result": "1.29 ± 0.015", "unit": "nM"}, {"measurement": "IC50", "setting": "[2]; [17]", "result": "0.85 ± 0.017", "unit": "nM"}, {"measurement": "IC90", "setting": "[2]; [17]", "result": "2.63 ± 0.19", "unit": "nM"}]}, {"smiles": "Cc1cn2nc([C@@H]3CCCCN3C(=O)c3cc(Cl)ccc3NS(C)(=O)=O)cc2nc1N1CC[C@H](N)C1", "note": "[GS-5806, reference compound]", "values": [{"measurement": "IC50", "setting": "[1]; [18]", "result": "0.45 ± 0.018", "unit": "nM"}, {"measurement": "IC90", "setting": "[1]; [18]", "result": "0.93 ± 0.098", "unit": "nM"}, {"measurement": "IC50", "setting": "[2]; [18]", "result": "0.17 ± 0.043", "unit": "nM"}, {"measurement": "IC90", "setting": "[2]; [18]", "result": "> 126", "unit": "nM"}, {"measurement": "IC50", "setting": "[3]", "result": "< 0.188", "unit": "nM"}, {"measurement": "IC90", "setting": "[3]", "result": "< 0.188", "unit": "nM"}, {"measurement": "activity on CPE of the PC786 escape mutant, in words", "setting": "[3]", "result": "remained susceptible"}, {"measurement": "IC50", "setting": "[16]; HEp-2, 24 h, MOI 0.02, n = 3, read-out: IC50 at treatment time 24 h postinoculation", "result": 1.62, "unit": "nM"}, {"measurement": "IC50", "setting": "[16]; HEp-2, 24 h, MOI 0.1, n = 3, read-out: IC50 at treatment time 24 h postinoculation", "result": 2.05, "unit": "nM"}, {"measurement": "IC50", "setting": "[16]; HEp-2, 24 h, MOI 1.0, n = 3, read-out: IC50 at treatment time 24 h postinoculation", "result": 11.7, "unit": "nM"}, {"measurement": "IC50", "setting": "[16]; HEp-2, 48 h, read-out: IC50 at treatment time 48 h postinoculation, MOI 0.02, n = 3", "result": 6.46, "unit": "nM"}, {"measurement": "IC50", "setting": "[16]; HEp-2, 48 h, read-out: IC50 at treatment time 48 h postinoculation, MOI 0.1, n = 3", "result": "> 188", "unit": "nM"}, {"measurement": "IC50", "setting": "[16]; HEp-2, 48 h, read-out: IC50 at treatment time 48 h postinoculation, MOI 1.0, n = 3", "result": "> 188", "unit": "nM"}, {"measurement": "IC50", "setting": "[16]; HEp-2, 72 h, MOI 0.02, n = 3, read-out: IC50 at treatment time 72 h postinoculation", "result": "> 188", "unit": "nM"}, {"measurement": "IC50", "setting": "[16]; HEp-2, 72 h, MOI 0.1, n = 3, read-out: IC50 at treatment time 72 h postinoculation", "result": "> 188", "unit": "nM"}, {"measurement": "IC50", "setting": "[16]; HEp-2, 72 h, MOI 1.0, n = 3, read-out: IC50 at treatment time 72 h postinoculation", "result": "> 188", "unit": "nM"}, {"measurement": "IC50", "setting": "[16]; HEp-2, MOI 0.02, n = 3, CPE at 144 h, read-out: IC50 at treatment time 0 h postinoculation", "result": 0.38, "unit": "nM"}, {"measurement": "IC50", "setting": "[16]; HEp-2, MOI 0.1, n = 3, CPE at 144 h, read-out: IC50 at treatment time 0 h postinoculation", "result": 0.57, "unit": "nM"}, {"measurement": "IC50", "setting": "[16]; HEp-2, MOI 1.0, n = 3, CPE at 144 h, read-out: IC50 at treatment time 0 h postinoculation", "result": 1.05, "unit": "nM"}, {"measurement": "IC50", "setting": "[5]; [19]", "result": 0.0018, "unit": "nM"}, {"measurement": "IC90", "setting": "[5]; [19]", "result": 0.0048, "unit": "nM"}]}]}
